Results: the NIST ThermoML archive (doi:10.1016/j.jct.2011.04.006)
Several values for one entry are separate records, joined by “and”; a condition that tells them apart may be missing. Equal values may be shown once.

Tests used:
[1] = 298.15 K; 101.33 kPa; Liquid; Vibrating tube method
[2] = excess molar enthalpy (molar enthalpy of mixing); xn = mol fraction of the nth substance listed; details: 298.15 K, 101 kPa, Liquid, Flow calorimetry

CCC(C)(C)C [2,2-dimethylbutane]
Details	mass density [kg/m3]
[1]	644.588

CCC(C)(C)C [2,2-dimethylbutane] + CCCCOCCCC
[2]
Details	excess molar enthalpy [kcal/mol]
x2 = 0.05	0.0065
x2 = 0.1	0.0112
x2 = 0.1499	0.015
x2 = 0.2001	0.018
x2 = 0.2502	0.0205
x2 = 0.2996	0.0224
x2 = 0.3501	0.0237
x2 = 0.3998	0.0246
x2 = 0.4497	0.0249
x2 = 0.5003	0.0246
x2 = 0.5004	0.0245
x2 = 0.5499	0.0239
x2 = 0.6002	0.0228
x2 = 0.6498	0.0213
x2 = 0.6999	0.0197
x2 = 0.7501	0.0173
x2 = 0.8	0.0149
x2 = 0.85	0.0119
x2 = 0.9	0.0088
x2 = 0.95	0.00528

CCC(C)(C)C [2,2-dimethylbutane] + CCCOCCC
[2]
Details	excess molar enthalpy [kcal/mol]
x2 = 0.05	0.00906
x2 = 0.1	0.0163
x2 = 0.15	0.0214
x2 = 0.2	0.0261
x2 = 0.2499	0.0298
x2 = 0.2998	0.0328
x2 = 0.3499	0.0349
x2 = 0.3998	0.036
x2 = 0.4501	0.037
x2 = 0.4995	0.037
x2 = 0.5497	0.0361
x2 = 0.6001	0.0347
x2 = 0.65	0.0325
x2 = 0.7001	0.0298
x2 = 0.7503	0.0265
x2 = 0.8001	0.0226
x2 = 0.85	0.0179
x2 = 0.9	0.0127
x2 = 0.95	0.00676

CC(C)C(C)C [2,3-dimethylbutane]
Details	mass density [kg/m3]
[1]	657.023

CC(C)C(C)C [2,3-dimethylbutane] + CCCCOCCCC
[2]
Details	excess molar enthalpy [kcal/mol]
x2 = 0.05	0.00607
x2 = 0.1	0.0104
x2 = 0.1501	0.0141
x2 = 0.2	0.0172
x2 = 0.2502	0.0196
x2 = 0.3	0.0215
x2 = 0.3499	0.0228
x2 = 0.3998	0.0238
x2 = 0.4501	0.0243
x2 = 0.5	0.0243
x2 = 0.5002	0.0242
x2 = 0.5493	0.0239
x2 = 0.5999	0.0229
x2 = 0.6501	0.0217
x2 = 0.7	0.02
x2 = 0.75	0.0181
x2 = 0.8001	0.0159
x2 = 0.85	0.0133
x2 = 0.9001	0.0101
x2 = 0.95	0.00672

CC(C)C(C)C [2,3-dimethylbutane] + CCCOCCC
[2]
Details	excess molar enthalpy
x2 = 0.05	0.00846 kcal/mol
x2 = 0.1	0.0152 kcal/mol
x2 = 0.15	0.0206 kcal/mol
x2 = 0.2001	0.0252 kcal/mol
x2 = 0.25	0.0288 kcal/mol
x2 = 0.3001	0.0321 kcal/mol
x2 = 0.3499	0.0346 kcal/mol
x2 = 0.4	0.0364 kcal/mol
x2 = 0.4498	0.0374 kcal/mol
x2 = 0.4998	0.0377 kcal/mol and 0.0376 kcal/mol
x2 = 0.55	0.0372 kcal/mol
x2 = 0.5999	0.0359 kcal/mol
x2 = 0.6501	0.034 kcal/mol
x2 = 0.7	0.0314 kcal/mol
x2 = 0.7502	0.028 kcal/mol
x2 = 0.8	0.0242 kcal/mol
x2 = 0.85	0.0193 kcal/mol
x2 = 0.9	0.0138 kcal/mol
x2 = 0.95	0.0075 kcal/mol

CCCOCCC [dipropyl ether]
Details	mass density [kg/m3]
[1]	741.977
